{"source": "paper PMC10731806", "about": "“Characterization of an iPSC-based barrier model for blood-brain barrier investigations using the SBAD0201 stem cell line” (Fluids and Barriers of the CNS, 2023)", "key": {"[1]": {"target": "T1, GLUT-1 (Homo sapiens, UniProt P11166)", "T1 construct": "endogenous in cells; host or cells: SBAD0201 hiPSC-derived brain capillary endothelial-like cells (BCECs)", "T1 sequence (P11166 1-492)": "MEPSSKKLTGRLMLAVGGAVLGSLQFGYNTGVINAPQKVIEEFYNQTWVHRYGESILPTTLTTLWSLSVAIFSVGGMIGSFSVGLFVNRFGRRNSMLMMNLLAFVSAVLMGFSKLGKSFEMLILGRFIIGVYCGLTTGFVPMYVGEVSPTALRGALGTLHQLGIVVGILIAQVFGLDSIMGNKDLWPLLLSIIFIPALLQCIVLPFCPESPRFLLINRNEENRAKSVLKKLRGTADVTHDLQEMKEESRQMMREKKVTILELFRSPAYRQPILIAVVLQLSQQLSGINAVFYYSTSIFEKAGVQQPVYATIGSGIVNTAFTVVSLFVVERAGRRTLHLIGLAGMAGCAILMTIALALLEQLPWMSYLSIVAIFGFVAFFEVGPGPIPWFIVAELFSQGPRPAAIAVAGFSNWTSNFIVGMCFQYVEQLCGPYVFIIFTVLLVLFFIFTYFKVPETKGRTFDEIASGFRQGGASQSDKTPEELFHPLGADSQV", "test": "Apical-to-basolateral transport of GLUT-1 substrates with and without GLUT-1 inhibitors", "assay_type": "cell-based", "settings": "A-B, glucose-free HBSS, one hour; for effect on apparent permeability of 6-NBDG: 6-NBDG 100 µM; for effect on apparent permeability of [^3H]-glucose: [3H]-glucose 20 nM", "method": "(§1) HBSS without glucose was used for transport assays involving [^3H]-glucose and 6-NBDG, whereas HBSS^+ was used for [^3H]-L-leucine. […] The function of GLUT-1 and LAT-1 were evaluated by co-application of the GLUT-1 inhibitors BAY876 (1 and 10 μM) and phloretin (100 μM) and the LAT-1 inhibitors JPH203 (10 μM) and BCH (100 μM). The inhibitors were added to the transport buffer in both chambers 15 min before the addition of the substrates."}, "[2]": {"test_system": "GLUT1", "settings": "cited from earlier work"}, "[3]": {"target": "T2, LAT-1 (Homo sapiens, UniProt Q01650)", "T2 construct": "endogenous in cells; host or cells: SBAD0201 hiPSC-derived brain capillary endothelial-like cells (BCECs)", "T2 sequence (Q01650 whole entry)": "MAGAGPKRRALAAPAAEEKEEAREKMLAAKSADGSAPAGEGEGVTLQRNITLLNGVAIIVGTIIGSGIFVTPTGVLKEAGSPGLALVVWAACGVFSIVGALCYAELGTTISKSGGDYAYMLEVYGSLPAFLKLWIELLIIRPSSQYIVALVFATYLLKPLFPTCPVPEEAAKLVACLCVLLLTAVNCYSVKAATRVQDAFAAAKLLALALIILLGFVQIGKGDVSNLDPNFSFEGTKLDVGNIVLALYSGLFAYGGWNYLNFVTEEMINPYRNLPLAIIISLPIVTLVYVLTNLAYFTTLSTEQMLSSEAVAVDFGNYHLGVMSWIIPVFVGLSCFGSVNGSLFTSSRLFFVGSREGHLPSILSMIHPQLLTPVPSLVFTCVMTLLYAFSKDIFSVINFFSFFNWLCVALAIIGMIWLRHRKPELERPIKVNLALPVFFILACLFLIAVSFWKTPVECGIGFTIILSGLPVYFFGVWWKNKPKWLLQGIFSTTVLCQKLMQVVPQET", "T2 sequence (P08195 102-630 partner)": "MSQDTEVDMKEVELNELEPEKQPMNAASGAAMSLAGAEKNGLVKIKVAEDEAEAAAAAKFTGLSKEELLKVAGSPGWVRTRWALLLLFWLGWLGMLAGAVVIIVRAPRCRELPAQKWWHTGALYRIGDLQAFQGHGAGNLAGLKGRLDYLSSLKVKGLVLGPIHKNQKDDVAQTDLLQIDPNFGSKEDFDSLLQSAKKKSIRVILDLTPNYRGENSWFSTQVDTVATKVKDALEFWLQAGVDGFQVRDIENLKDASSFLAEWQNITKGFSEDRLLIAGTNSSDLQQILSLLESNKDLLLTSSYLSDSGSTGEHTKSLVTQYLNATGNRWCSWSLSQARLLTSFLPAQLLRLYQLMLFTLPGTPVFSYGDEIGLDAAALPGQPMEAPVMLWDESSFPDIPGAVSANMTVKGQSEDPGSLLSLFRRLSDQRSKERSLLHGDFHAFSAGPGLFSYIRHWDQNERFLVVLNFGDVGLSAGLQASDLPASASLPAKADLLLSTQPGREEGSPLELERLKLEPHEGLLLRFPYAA", "test": "Apical-to-basolateral transport of [3H]-L-leucine with and without LAT-1 inhibitors", "assay_type": "cell-based", "settings": "[3H]-L-leucine 9.3 nM, A-B, HBSS+, one hour", "method": "as §1"}, "[4]": {"test_system": "P-gp", "test": "Bidirectional transport and uptake of P-gp substrates with and without zosuquidar", "settings": "for vectorial transport (bidirectional): EC-/- medium"}}, "data": [{"compound": "Cc1c(NC(=O)c2cc(C(N)=O)nc3cc(F)ccc23)c(C(F)(F)F)nn1Cc1ccc(C#N)cc1", "note": "[BAY876]", "values": [{"measurement": "effect on apparent permeability of 6-NBDG", "setting": "[1]; 10 µM BAY876", "value": "sensitive to the addition"}, {"measurement": "effect on apparent permeability of [^3H]-glucose", "setting": "[1]; 10 µM BAY876", "value": "sensitive to the addition"}, {"measurement": "selectivity for GLUT1 relative to GLUT2, GLUT3, GLUT4", "setting": "[2]", "value": "at least 130 fold"}]}, {"compound": "NC1(C(=O)O)CC2CCC1C2", "note": "(centres unmarked) [BCH]", "values": [{"measurement": "effect on transport of [3H]-L-leucine", "setting": "[3]; BCH 100 µM", "value": "significantly decreased"}]}, {"compound": "Nc1cc(COc2c(Cl)cc(C[C@H](N)C(=O)O)cc2Cl)c2oc(-c3ccccc3)nc2c1", "note": "[JPH203]", "values": [{"measurement": "effect on transport of [3H]-L-leucine", "setting": "[3]; JPH203 10 µM", "value": "significantly decreased"}]}, {"compound": "C[C@H]1O[C@@H](O[C@H]2[C@@H](O)C[C@H](O[C@H]3[C@@H](O)C[C@H](O[C@H]4CC[C@@]5(C)[C@H](CC[C@@H]6[C@@H]5C[C@@H](O)[C@]5(C)[C@@H](C7=CC(=O)OC7)CC[C@]65O)C4)O[C@@H]3C)O[C@@H]2C)C[C@H](O)[C@@H]1O", "note": "[[^3H]-digoxin, digoxin]", "values": [{"measurement": "vectorial transport (bidirectional)", "setting": "[4]; [3H]-digoxin 38.2 nM, two hours", "value": "No vectorial transport"}]}, {"compound": "O=C(CCc1ccc(O)cc1)c1c(O)cc(O)cc1O", "note": "[phloretin]", "values": [{"measurement": "effect on apparent permeability of 6-NBDG", "setting": "[1]; 100 µM phloretin", "value": "sensitive to the addition"}, {"measurement": "effect on apparent permeability of [^3H]-glucose", "setting": "[1]; 100 µM phloretin", "value": "sensitive to the addition"}]}, {"compound": "COC(=O)c1ccccc1-c1c2ccc(=N)cc-2oc2cc(N)ccc12", "note": "[rhodamine 123]", "values": [{"measurement": "vectorial transport (bidirectional)", "setting": "[4]; rhodamine 123 5 µM, two hours", "value": "No vectorial transport"}]}, {"compound": "O[C@@H](COc1cccc2ncccc12)CN1CCN([C@@H]2c3ccccc3[C@@H]3[C@H](c4ccccc42)C3(F)F)CC1", "note": "[zosuquidar]", "values": [{"measurement": "effect on transport of rhodamine 123 and [3H]-digoxin", "setting": "[4]; zosuquidar 0.4 µM, both chambers, two hours", "value": "neither the transport nor the uptake of the substrates was affected"}, {"measurement": "effect on uptake of rhodamine 123 and [3H]-digoxin", "setting": "[4]; zosuquidar 0.4 µM, uptake probed after the transport study", "value": "neither the transport nor the uptake of the substrates was affected"}]}]}
